From PubChem BioAssay (NCI)
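Dose response: 5 concentrations. Exposure: 48 h. Format: 96-well plates. Endpoint: linear interpolation; highest concentration if not reached. TGI denotes the concentration required for complete inhibition of growth.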

How the values were obtained:
Assay in all cases: NCI anticancer screen, dose series, 48 h
[1] = test system: SK-MEL-28 melanoma
[2] = test system: SF-268 CNS
[3] = test system: A549 NSCLC
[4] = test system: SF-539 CNS
[5] = test system: COLO 205 colon
[6] = test system: K-562 leukemia
[7] = test system: HCT-116 colon
[8] = test system: U251 CNS
[9] = test system: HL-60(TB) leukemia
[10] = test system: MCF7 breast
[11] = test system: NCI/ADR-RES ovarian

Structure (SMILES)	TGI [1] [µM]	TGI [2] [µM]	TGI [3] [µM]	TGI [4] [µM]	TGI [5] [µM]	TGI [6] [µM]	TGI [7] [µM]	TGI [8] [µM]	TGI [9] [µM]	TGI [10] [µM]	TGI [11] [µM]
CC(C)(CN1CCCCC1)C(=O)CC(SCCN)c1ccc(Cl)cc1 (configuration not stated)	13	9.36	10.2	4.21	3.24	> 100	7.61	11.7			
C#C[C@]1(O)[C@@H](CO)O[C@@H](n2ccc(N)nc2=O)[C@@H]1O	4.27	6.04	> 100	13.5	0.203	> 100	> 33.9		> 100	> 100	
CCOC(=O)C1(C#N)C(C#N)(C#N)C1(C#N)C#N	> 100	> 100	> 100		> 100	> 100	> 100	> 100	> 100	> 100	> 100
CN(C)CC1CCCCCCCCCCCCC(CN(C)C)C1=O (configuration not stated)	26.6	26	29.6	28.7	27.6		16.8	28			
CC(=O)OCC1OC(OC(C)=O)C(Nc2ncc(-c3ccc(C)cc3)s2)C(OC(C)=O)C1OC(C)=O (configuration not stated)	31.2	36.2	47.9	37.7	38	65.8	32.1	31.6		52.1	76.8
O=C1CCCC2=C1CC1=C(CCCC1=O)N2c1ccc([N+](=O)[O-])cc1	> 100	> 100	> 100	> 100		> 100		> 100	> 100	> 100	> 100
N#CCC1C2CC3C(C2=O)C13 (configuration not stated)	> 100	> 100	> 100	> 100	> 100	> 100	> 100	> 100		> 100	> 100
O=[N+]([O-])c1ccc(CN=C2NNS(=O)(=O)c3ccccc32)cc1		> 100	> 100	> 100	> 100	> 100	> 100	> 100	> 100		
COC1=CC(=O)c2c(cc3c(c2O)-c2c(OC)cc4cc5c(c(O)c4c2OC(=O)CC(C)(O)C3)C(=O)CC(C)(O)C5)C1=O (configuration not stated)	4.36	9.26	10.7	3.67	3.17	12.6	7.58	9.92	5.56		
CN1C(C)(C)CC(=O)C(Br)C1(C)C (configuration not stated)	> 100	> 100	> 100		> 100	> 100		> 100	> 100	> 100	> 100
O=C(Cc1ccccc1)NN1C(=O)C(Cl)C1c1cccc([N+](=O)[O-])c1 (configuration not stated)	> 100	> 100	> 100	> 100	> 100	54	> 84.2	> 100	29.5		
O=C1Oc2cc3c(c4cccc1c24)OCN(c1ccccc1)C3	> 100	> 100	> 100		> 100	63	> 100	> 100	> 100		
CCc1ccc(Nc2cc(=O)n(C)c(SCc3ccccc3)n2)cc1		> 100	> 100	> 100	45.2	> 100	57.1		> 100	> 100	> 100
O=C(CCN1CCC(CCO)CC1)Nc1ccc2c(c1)C(=O)c1ccc(NC(=O)CCN3CCC(CCO)CC3)cc1C2=O	> 100	45.7	> 100	19.4	64.6	42.6	31.2	23.8	> 100		
Cc1ccc(C(=O)N2CCCCC2)cc1N=NN(C)C	> 100	> 100	> 100	> 100	> 100	> 100	> 100		> 100		
O=C1CC(C(OCc2ccccc2)C(OCc2ccccc2)C(OCc2ccccc2)C(COCc2ccccc2)OCc2ccccc2)CC(=O)N1 (configuration not stated)	> 100	> 100	> 100			> 100		> 100	> 100		> 100
S=C(Nc1ccc2c(c1)oc1ccccc12)c1cccs1	> 100	> 100	> 100	> 100	> 100		> 100	> 100	> 100	> 100	> 100
O=P(CCOc1ccccc1OCCP(=O)(c1ccccc1)c1ccc2c(c1)OCCOCCOCCOCCO2)(c1ccccc1)c1ccc2c(c1)OCCOCCOCCOCCO2 (configuration not stated)	> 100	> 100	> 100	> 100	> 100	> 100	> 100	> 100	> 100		
c1ccc2nn(C3CCCO3)nc2c1 (configuration not stated)		> 100	> 100	> 100	> 100	> 100	> 100	> 100	> 100	> 100	> 100
CCOC(=O)C1=CNC(C(=O)OCC)C1c1cccn1-c1ccccc1 (configuration not stated)	76.3	> 100	> 100	47.1	68.2	> 100	58.6	> 100		> 100	91.4
Cn1nc(-c2ccccc2)c2c(-c3ccccc3)c3cc(Cl)ccc3nc21	> 100	> 100	> 100			> 100	> 100	> 100	> 100	> 100	> 25.7
CC1CCC2CC1NC(=O)CCOCCC(=O)NC2(C)C (configuration not stated)	> 100	> 100	> 100	> 100	> 100	> 100	> 100	> 100	> 100	> 100	
